Values of other authors as cited in US20130064803A1, “BIO-REPLENISHMENT (BioRep) FOR COGNITIVE HEALTH” (Naidu LP, priority 2011, published 2013).

Columns and labels:
[1] = in vivo

Structure (SMILES)	share of an oral dose ending up in the bloodstream	first-pass, share metabolized in the liver [1]
N[C@@H](Cc1c[nH]c2ccc(O)cc12)C(=O)O [5-HTP, 5-hydroxy-tryptophan]	about 70%	
C[S+](CC[C@H](N)C(=O)O)C[C@H]1O[C@@H](n2cnc3c(N)ncnc32)[C@H](O)[C@@H]1O (some centres unmarked) [SAMe, S-adenosylmethionine]		approximately 50%
